This note sets out measurements from article PMC8896685 (PLoS ONE, 2022).

Numbered stars: 1 amine (or outer) side, 2 acyl side, 3 side chain; on linkers, the order of the positions; unused ones are H or OH. Square brackets hold non-standard residues; d marks the D form. Side chains are listed from the residue outwards. Peptide text beside a SMILES is read from it. * marks the point of attachment. C18 diacid = O=C(O)CCCCCCCCCCCCCCCCC(=O)*; γGlu = O=C(O)[C@H](CCC(=O)[*:2])N[*:1]; Desaminohistidyl = O=C(CCc1c[nH]cn1)*; Ac4c = NC1(C(=O)O)CCC1; AEEA = NCCOCCOCC(=O)O; Aib = CC(C)(N)C(=O)O

The target of one assay is T1, Mouse GCGR (Mus musculus, UniProt Q61606).
T1 construct: a plasmid encoding either the glucagon receptor or the GLP-1 receptor from the relevant species; expressed in transfected cells
T1 sequence (Q61606 27-485): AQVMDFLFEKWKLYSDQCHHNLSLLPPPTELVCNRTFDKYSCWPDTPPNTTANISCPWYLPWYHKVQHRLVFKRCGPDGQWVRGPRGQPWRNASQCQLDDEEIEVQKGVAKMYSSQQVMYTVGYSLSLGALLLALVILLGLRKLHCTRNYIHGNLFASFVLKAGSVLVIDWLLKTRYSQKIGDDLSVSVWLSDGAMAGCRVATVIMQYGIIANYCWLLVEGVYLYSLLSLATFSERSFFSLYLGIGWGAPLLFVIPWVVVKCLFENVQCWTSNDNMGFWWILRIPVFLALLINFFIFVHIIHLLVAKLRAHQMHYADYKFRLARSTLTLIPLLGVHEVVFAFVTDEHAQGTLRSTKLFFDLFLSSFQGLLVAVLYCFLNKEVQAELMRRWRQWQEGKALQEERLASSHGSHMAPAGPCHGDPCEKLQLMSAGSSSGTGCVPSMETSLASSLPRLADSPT
Nature of the assay: Receptor potency, CRE-luciferase functional assay in BHK cells. Particulars: Mouse receptors, whole BHK cells, 3 h 37°C, value (95% CI). The assay is classed as cell-based. The protocol: (§1) The binding assay was performed on cell membranes in the presence of 1% (v/v) species-specific heparin-treated pooled plasma (Bioreclamation IVT, Westbury, NY) diluted in assay buffer (50 mM HEPES supplemented with 5 mM EGTA, 5 mM MgCl2, and 0.005% (v/v) Tween 20, pH7.4). […] Cells stably expressing an individual receptor of interest were grown at 5% CO2, 37°C in DMEM (supplemented with 10% FCS, 0.5 mg/ml G418 and 0.3 mg/ml hygromycin). Membrane preparations were made from cells harvested at approximately 80% confluence, washed and homogenized in 20 mM HEPES with 0.1 mM EDTA, pH 7.4. Protein concentration was determined, and the membranes were stored at -80°C until use. The membrane binding assay was performed in a 96-well OptiPlate (PerkinElmer) in a total volume of 200 μl. Test compounds were dissolved in 80% DMSO and further diluted in assay buffer. 50 μl of diluted plasma was added to the assay plate wells followed by addition of test compounds (25 μl), cell membranes (50 μl, 0.06 mg/ml), SPA beads (20 mg/ml in assay buffer) and radioligand (60,000 cpm/well, corresponding to 0.06 nM; 2200 Ci/mmol. Each assay plate was incubated for 2 h at 30°C, centrifuged at 1500 rpm for 10 minutes and counted in a TopCount NXT instrument (PerkinElmer).
(§2) Functional assays were performed on whole cells in the absence or presence of 100% species-specific heparin-treated pooled plasma (Bioreclamation IVT). […] The cells were cultured with DMEM (supplemented with GlutaMAX, 10% FBS, 0.5 mg/ml G418 and 0.3 mg/ml hygromycin) at 5% CO2 and 37°C. At approximately 80–90% confluence, cells were washed with PBS and harvested with Versene (Life Technologies, Carlsbad, CA). The cells were counted and plated into 96-well microtiter plates coated with poly-D-Lys (Corning BioCoat) with 5,000 cells/well and thereafter incubated overnight in growth media. The next day the media was changed to assay buffer (DMEM without phenol red, supplemented with GlutaMAX, 10 mM HEPES, 1% ovalbumin and 0.1% Pluronic F-68) or to 100% plasma. In the absence of plasma, compounds were diluted in assay buffer. In assays tested with plasma, compounds were diluted in pure plasma. Buffer was removed from the plates and 50 μl of test compound dilutions was added to the plates followed by 50 μl of plasma or the same buffer used for compound dilution. The assay plates were incubated for 3 h in a 5% CO2 incubator at 37°C. The plates were then transferred to room temperature for 15 min and 100 μl Steadylite Plus reagent (PerkinElmer) was added to each well. The plates were shaken for 30 min at room temperature while protected from light after which luminescence was measured.
(§3) For the receptor binding assays, logIC50 values were calculated using non-linear regression analysis. The error estimation was reported as the 95% confidence interval. […] The calculations were performed in GraphPad Prism 6.4 (GraphPad, San Diego, CA) and error estimation was expressed as the 95% confidence interval. […] Averages, error estimation, ratios and plasma shifts were all calculated on logIC50 or logEC50 values and transformed to the anti-log values for reporting purposes.

The next assay deals with T2, Mouse GLP-1R (Mus musculus, UniProt O35659).
T2 construct: a plasmid encoding either the glucagon receptor or the GLP-1 receptor from the relevant species; expressed in transfected cells
T2 sequence (O35659 22-463): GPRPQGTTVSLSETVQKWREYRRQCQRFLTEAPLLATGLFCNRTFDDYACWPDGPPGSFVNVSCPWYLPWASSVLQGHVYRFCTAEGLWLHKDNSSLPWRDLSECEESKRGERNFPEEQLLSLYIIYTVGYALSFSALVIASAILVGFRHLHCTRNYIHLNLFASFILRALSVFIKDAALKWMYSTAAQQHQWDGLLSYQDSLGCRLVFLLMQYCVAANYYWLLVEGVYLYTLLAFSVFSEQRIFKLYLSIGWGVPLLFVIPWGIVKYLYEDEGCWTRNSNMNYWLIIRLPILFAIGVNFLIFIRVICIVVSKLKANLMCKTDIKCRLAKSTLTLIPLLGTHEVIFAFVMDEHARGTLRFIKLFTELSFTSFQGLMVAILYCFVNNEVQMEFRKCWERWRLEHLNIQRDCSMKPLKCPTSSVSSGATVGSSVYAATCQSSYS
The assay is described as above. Type of assay: cell-based. The settings on record: Mouse receptors, whole BHK cells, 3 h 37°C, value (95% CI). As to the method:
as §1, §2, §3

Setting [1] is: GCGR EC50, pM (95% CI) 0% plasma, 0% plasma.
Where [2] appears, read: GCGR EC50, pM (95% CI) 100% plasma, 100% species-specific plasma.
Setting [3] is: GLP-1R EC50, pM (95% CI) 100% plasma, 100% species-specific plasma.

Broadly, the EC50 is the concentration at which the effect is half-maximal. Lower therefore signals an effect from little substance.

Regarding `CC(C)C[C@H](NC(=O)[C@H](Cc1ccc(O)cc1)NC(=O)[C@H](CCCCN)NC(=O)[C@H](CO)NC(=O)[C@H](CC(C)C)NC(=O)[C@H](CC(=O)O)NC(=O)[C@H](CO)NC(=O)[C@@H](NC(=O)[C@H](Cc1ccccc1)NC(=O)[C@@H](NC(=O)CNC(=O)[C@H](CCC(N)=O)NC(=O)C(C)(C)NC(=O)[C@@H](N)Cc1c[nH]cn1)[C@@H](C)O)[C@@H](C)O)C(=O)N[C@@H](CCC(=O)O)C(=O)N[C@@H](CO)C(=O)N[C@@H](CCCCN)C(=O)N[C@@H](CCCNC(=N)N)C(=O)N[C@@H](C)C(=O)N[C@@H](CCCNC(=N)N)C(=O)N[C@@H](CCC(=O)O)C(=O)N[C@@H](Cc1ccccc1)C(=O)N[C@H](C(=O)N[C@@H](CCC(N)=O)C(=O)N[C@@H](Cc1c[nH]c2ccccc12)C(=O)N[C@@H](CC(C)C)C(=O)N[C@@H](CC(C)C)C(=O)N[C@@H](CCCCNC(=O)CC[C@H](NC(=O)CC[C@H](NC(=O)[C@H](CO)NC(=O)[C@H](CCC(=O)O)NC(=O)[C@H](CO)NC(=O)CC[C@H](NC(=O)CC[C@H](NC(=O)CCCCCCCCCCCCCCCCC(=O)O)C(=O)O)C(=O)O)C(=O)O)C(=O)O)C(=O)N[C@H](C(N)=O)[C@@H](C)O)C(C)C` [NN1177] (H-H[Aib]QGTFTSDLSKYLESKRAREFVQWLLK([γGlu-γGlu-Ser-Glu-Ser-γGlu-γGlu-C18 diacid])T-NH2), the EC50 on Mouse GCGR (setting [1]) stood at 1.96 pM; on Mouse GCGR (setting [2]), 103 pM; on Mouse GLP-1R (setting [3]), 12.6 pM.
In the case of `CC(C)C[C@H](NC(=O)[C@H](CC(C)C)NC(=O)[C@H](Cc1c[nH]c2ccccc12)NC(=O)[C@H](CCC(N)=O)NC(=O)[C@@H](NC(=O)[C@H](Cc1ccccc1)NC(=O)[C@H](CCC(=O)O)NC(=O)[C@H](CCCNC(=N)N)NC(=O)[C@H](C)NC(=O)[C@H](C)NC(=O)[C@H](CCCNC(=N)N)NC(=O)[C@H](CO)NC(=O)[C@H](CC(=O)O)NC(=O)[C@H](CC(C)C)NC(=O)[C@H](Cc1ccc(O)cc1)NC(=O)[C@H](CCCCN)NC(=O)[C@H](CO)NC(=O)[C@H](CC(C)C)NC(=O)[C@H](CC(=O)O)NC(=O)[C@H](CO)NC(=O)[C@@H](NC(=O)[C@H](Cc1ccccc1)NC(=O)[C@@H](NC(=O)CNC(=O)[C@H](CCC(=O)O)NC(=O)C(C)(C)NC(=O)[C@@H](N)Cc1c[nH]cn1)[C@@H](C)O)[C@@H](C)O)C(C)C)C(=O)N[C@@H](CC(N)=O)C(=O)N[C@@H](CCCCNC(=O)CC[C@H](NC(=O)CC[C@H](NC(=O)COCCOCCNC(=O)COCCOCCNC(=O)CC[C@H](NC(=O)CCCCCCCCCCCCCCCCC(=O)O)C(=O)O)C(=O)O)C(=O)O)C(N)=O` [GLP-1 reference] (H-H[Aib]EGTFTSDLSKYLDSRAAREFVQWLLNK([γGlu-γGlu-AEEA-AEEA-γGlu-C18 diacid])-NH2), the EC50 came to 442000 pM at Mouse GCGR (setting [2]) and 24.6 pM at Mouse GLP-1R (setting [3]).
Take `CC[C@H](C)[C@H](NC(=O)[C@H](Cc1ccccc1)NC(=O)[C@H](CCC(=O)O)NC(=O)[C@H](CCCNC(=N)N)NC(=O)[C@H](C)NC(=O)[C@H](C)NC(=O)[C@H](CCC(N)=O)NC(=O)[C@H](CCC(=O)O)NC(=O)[C@H](CCC(=O)O)NC(=O)[C@H](CC(C)C)NC(=O)[C@H](Cc1ccc(O)cc1)NC(=O)[C@H](CCCCN)NC(=O)[C@H](CO)NC(=O)[C@@H](NC(=O)[C@H](CC(=O)O)NC(=O)[C@H](CO)NC(=O)[C@@H](NC(=O)[C@H](Cc1ccccc1)NC(=O)[C@@H](NC(=O)CNC(=O)[C@H](Cc1c[nH]cn1)NC(=O)C(C)(C)NC(=O)CCc1c[nH]cn1)[C@@H](C)O)[C@@H](C)O)C(C)C)C(=O)N[C@@H](C)C(=O)N[C@@H](Cc1c[nH]c2ccccc12)C(=O)N[C@@H](CC(C)C)C(=O)N[C@@H](CC(C)C)C(=O)N[C@@H](CCCCNC(=O)COCCOCCNC(=O)COCCOCCNC(=O)CC[C@H](NC(=O)CC[C@H](NC(=O)CCCCCCCCCCCCCCCCC(=O)O)C(=O)O)C(=O)O)C(=O)N[C@H](C(N)=O)[C@@H](C)O` [NN1359] (Desaminohistidyl-[Aib]HGTFTSDVSKYLEEQAAREFIAWLLK([AEEA-AEEA-γGlu-γGlu-C18 diacid])T-NH2): the values for the EC50 at Mouse GCGR (setting [1]), at Mouse GCGR (setting [2]) and at Mouse GLP-1R (setting [3]) were 29.7 pM, 2540 pM and 95.3 pM, respectively.
With `CC(C)C[C@H](NC(=O)[C@H](CC(=O)O)NC(=O)[C@H](CC(C)C)NC(=O)[C@H](Cc1ccc(O)cc1)NC(=O)[C@H](CCCCN)NC(=O)[C@H](CO)NC(=O)[C@H](CC(C)C)NC(=O)[C@H](CC(=O)O)NC(=O)[C@H](CO)NC(=O)[C@@H](NC(=O)[C@H](Cc1ccccc1)NC(=O)[C@@H](NC(=O)CNC(=O)[C@H](CCC(N)=O)NC(=O)C1(NC(=O)[C@@H](N)Cc2c[nH]cn2)CCC1)[C@@H](C)O)[C@@H](C)O)C(=O)N[C@@H](CCCNC(=N)N)C(=O)N[C@@H](CCCNC(=N)N)C(=O)N[C@@H](C)C(=O)N[C@@H](CCCNC(=N)N)C(=O)N[C@@H](CC(=O)O)C(=O)N[C@@H](Cc1ccccc1)C(=O)N[C@H](C(=O)N[C@@H](CCC(N)=O)C(=O)N[C@@H](Cc1c[nH]c2ccccc12)C(=O)N[C@@H](CC(C)C)C(=O)N[C@@H](CC(C)C)C(=O)N[C@@H](CCCCNC(=O)CC[C@H](NC(=O)CC[C@H](NC(=O)COCCOCCNC(=O)COCCOCCNC(=O)CC[C@H](NC(=O)CC[C@H](NC(=O)CCCCCCCCCCCCCCCCC(=O)O)C(=O)O)C(=O)O)C(=O)O)C(=O)O)C(=O)N[C@H](C(N)=O)[C@@H](C)O)C(C)C` [NN1151] (H-H[Ac4c]QGTFTSDLSKYLDLRRARDFVQWLLK([γGlu-γGlu-AEEA-AEEA-γGlu-γGlu-C18 diacid])T-NH2), the EC50 at Mouse GCGR (setting [2]) came out at 60.3 pM; at Mouse GLP-1R (GLP-1R EC50, pM (95% CI) 0% plasma, 0% plasma), 1.13 pM; at Mouse GLP-1R (setting [3]), 161 pM.
